Values joined by “and” are separate entries in the source; they are usually repeats but may differ in a detail not shown here. Equal entries are not always repeated.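 96-well plates; 48 h exposure; 5 concentrations. Endpoints by linear interpolation between flanking doses. Not reached: highest tested concentration assigned. Abbreviation: GI50, concentration required for 50% inhibition of growth. TGI denotes the concentration required for complete inhibition of growth.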
system: OVCAR-5 ovarian; assay: NCI-60 cell line screen, 48 h

`CC(C)=CCC\C(C)=C/C=C/C(C)=C\C=C\C(C)=C/C=C/C=C(C)\C=C\C=C(C)/C=C/C=C(/C)CCC=C(C)C` and `CC1(C)C(=O)/C=C\C(=O)C(C)(C)C2=CC=C(O2)C(C)(C)C(=O)/C=C\C(=O)C(C)(C)C2=CC=C1O2` cannot be ordered by TGI: greater than 100 µM for the first, greater than 100 µM for the second.

`NC(=O)NO.O.O.O.O.O.O.O.O.O.O.O.[Ge].[Ge].[Ge].[Ge].[Ge].[O]=[Ge].[O]=[Ge].[O]=[Ge].[O]=[Ge].[O]=[Ge][OH]` and `COc1cc(/C=N\NC(=O)CN2CCN(c3cc4c(cc3F)c(=O)c(C(=O)N/N=C/c3cc(OC)c(OC)c(OC)c3)cn4C3CC3)CC2)cc(OC)c1OC` cannot be ordered by TGI: greater than 100 µM for the first, greater than 62.4 µM for the second.

`CN(C)C(=S)N=C(Nc1ccccc1)Nc1ccccc1` and `COC(=O)CC[N+]1=CCC(c2ccccc2)(c2ccccc2)O1` cannot be ordered by TGI: greater than 100 µM for the first, greater than 100 µM for the second.

`COc1cccc(C2c3cc4c(cc3OC(C)(N3CCCC3)C2C)OCO4)c1O` (stereo unspecified) and `O=C1NC(=NCCc2cccc(F)c2)S/C1=C\c1ccc2ncccc2c1` cannot be ordered by TGI: 77.3 µM for the first, greater than 25 µM for the second.

Going from `NC(N)=NS(=O)(=O)c1ccc(Nc2c3ccccc3nc3c(C(=O)NCCO)cccc23)cc1` to `O=C1NC(=NCCc2cccc(F)c2)S/C1=C\c1ccc2ncccc2c1`, the GI50 rises from 22.4 µM to greater than 25 µM.

For `COc1cc(/C=N\NC(=O)CN2CCN(c3cc4c(cc3F)c(=O)c(C(=O)N/N=C/c3cc(OC)c(OC)c(OC)c3)cn4C3CC3)CC2)cc(OC)c1OC`, the GI50 was 0.489 µM.

system: A498 renal; assay: NCI-60 cell line screen, 48 h

First: COc1ccc(CC2c3cc4c(cc3CCN2C)OCO4)c(C=O)c1OC (stereo unspecified)
Second: COc1cc2cc(OC)c3cc4c(cc3c2c(OC)c1OC)OCO4
The TGI of the first is higher: greater than 100 µM for the first, 97.5 µM for the second.

First: CN1CCCCC1CCN1c2ccccc2Sc2ccc(Cl)cc21 (stereo unspecified)
Second: COc1cc2c(cc1OCCCCN1CCN(CC(=O)Nc3ccc(Cl)cc3C(=O)c3ccccc3Cl)CC1)N=CC1CCCN1C2=O (stereo unspecified)
The TGI of the first is 30-fold higher: 10.8 µM for the first, 0.364 µM for the second.

First: C=C(C)C(OC)C(O)CC1(C)CC(O)CC(C)(C2CCC3OC(C4(C)CCC(Br)C(C)(C)O4)CCC3(C)O2)O1 (stereo unspecified)
Second: CC1(C(=O)O)CCC[C@@]2(C)C1CC[C@@]1(C)c3cocc3CCC21 (stereo partly specified)
The TGI of the first is lower: 31.1 µM for the first, greater than 100 µM for the second.

First: O=C(Nc1nc2ccc([N+](=O)[O-])cc2s1)C(=O)C(C1OC(=O)c2ccccc21)[N+](=O)[O-] (stereo unspecified)
Second: COC(=O)c1ccccc1NC(=O)C(=O)Cc1nc2c3c(ccc2[nH]c1=O)C(=O)c1ccccc1C3=O
The TGI of the first is lower: 45 µM for the first, greater than 100 µM for the second.

`Cc1cc(-c2nc(C(=O)Nc3cc4oc(N5CCOCC5)nc4nc3N3CC[C@@H](O)C3)co2)ccn1` and `COc1cccc(C2c3cc4c(cc3OC(C)(N3CCCC3)C2C)OCO4)c1O` (stereo unspecified) are within 1.5-fold of each other in TGI: 39.2 µM for the first, 40.5 µM for the second.

`O=C(CCc1nc(=S)[nH][nH]1)Nc1ccc(Cl)c(Cl)c1` and `O=C(CC(=O)c1cccc2ccccc12)C(=O)Nc1ccc(Cl)cc1` cannot be ordered by TGI: greater than 100 µM for the first, greater than 100 µM for the second.

`COC(=O)C1(C(C)C)CCc2c(OC)ccc(OC)c2C1=O` (stereo unspecified) and `C=CCOc1ccc2c(C)cc(=O)oc2c1C` cannot be ordered by TGI: greater than 100 µM for the first, greater than 100 µM for the second.

Going from `Cc1ccc(Cl)c2c(N=Nc3ccccc3[N+](=O)[O-])c(O)[nH]c12` to `OCc1cc2ccccc2c2c3c(ccc12)OCO3`, the TGI falls from greater than 100 µM to 39.5 µM.

Going from `FC(F)(F)c1cccc(Nc2nc(-c3ccccc3)nc3ncccc23)c1` to `O=C1NC(=NCCc2cccc(F)c2)S/C1=C\c1ccc2ncccc2c1`, the TGI rises from 5.21 µM to greater than 25 µM.

First: OC1CSSC1Cn1cnc2c(Nc3ccc(OCc4cccc(F)c4)c(Cl)c3)ncnc21 (stereo unspecified)
Second: Nc1c(C(=O)c2cccc(CCS(N)(=O)=O)c2)cnn1-c1ccc(F)cc1
The TGI of the first is lower: 12.4 µM for the first, greater than 25 µM for the second.

`CCN(CC)CCSc1c2ccccc2nc2cc(NCC(=O)Nc3ccccc3-c3ccccc3NC(=O)CNc3ccc4c(SCCN(CC)CC)c5ccccc5nc4c3)ccc12` and `CN(C)C(=S)N=C(Nc1ccccc1)Nc1ccccc1` cannot be ordered by TGI: greater than 100 µM for the first, greater than 100 µM for the second.

First: Cc1ccsc1C(=S)Nc1ccc(Cl)c(/C=N/OC(C)(C)C)c1
Second: COC(=O)CC[N+]1=CCC(c2ccccc2)(c2ccccc2)O1
The TGI of the first is lower: 41.1 µM for the first, greater than 100 µM for the second.

`CC(C)=CCC\C(C)=C/C=C/C(C)=C\C=C\C(C)=C/C=C/C=C(C)\C=C\C=C(C)/C=C/C=C(/C)CCC=C(C)C` and `CC1(C)C(=O)/C=C\C(=O)C(C)(C)C2=CC=C(O2)C(C)(C)C(=O)/C=C\C(=O)C(C)(C)C2=CC=C1O2` cannot be ordered by TGI: greater than 100 µM for the first, greater than 100 µM for the second.

First: NC(=O)NO.O.O.O.O.O.O.O.O.O.O.O.[Ge].[Ge].[Ge].[Ge].[Ge].[O]=[Ge].[O]=[Ge].[O]=[Ge].[O]=[Ge].[O]=[Ge][OH]
Second: COc1cc(/C=N\NC(=O)CN2CCN(c3cc4c(cc3F)c(=O)c(C(=O)N/N=C/c3cc(OC)c(OC)c(OC)c3)cn4C3CC3)CC2)cc(OC)c1OC
The TGI of the first is higher: greater than 100 µM for the first, 23.7 µM for the second.

Compared with `CN1CCCCC1CCN1c2ccccc2Sc2ccc(Cl)cc21` (stereo unspecified), `COc1cc2c(cc1OCCCCN1CCN(CC(=O)Nc3ccc(Cl)cc3C(=O)c3ccccc3Cl)CC1)N=CC1CCCN1C2=O` (stereo unspecified) is 14-fold lower in GI50: 2.7 µM for the first, 0.194 µM for the second.

Compared with `C=C(C)C(OC)C(O)CC1(C)CC(O)CC(C)(C2CCC3OC(C4(C)CCC(Br)C(C)(C)O4)CCC3(C)O2)O1` (stereo unspecified), `CCCCCCCCCCCCCC(=O)OC(/C=C/C(C)C)C(O)C(O)C(OC)C(=O)NC1CCCCN(C)C1=O` (stereo unspecified) is higher in GI50: 16.5 µM for the first, greater than 49 µM for the second.

Compared with `Cc1cc(-c2nc(C(=O)Nc3cc4oc(N5CCOCC5)nc4nc3N3CC[C@@H](O)C3)co2)ccn1`, `COc1cc(/C=N\NC(=O)CN2CCN(c3cc4c(cc3F)c(=O)c(C(=O)N/N=C/c3cc(OC)c(OC)c(OC)c3)cn4C3CC3)CC2)cc(OC)c1OC` is 4.5-fold lower in GI50: 1.34 µM for the first, 0.299 µM for the second.

Compared with `FC(F)(F)c1cccc(Nc2nc(-c3ccccc3)nc3ncccc23)c1`, `NC(N)=NS(=O)(=O)c1ccc(Nc2c3ccccc3nc3c(C(=O)NCCO)cccc23)cc1` is 8-fold higher in GI50: 1.7 µM for the first, 13.6 µM for the second.

Going from `O=C(Nc1ccccc1)c1c(O)[nH]c(=S)[nH]c1=O` to `OCc1cc2ccccc2c2c3c(ccc12)OCO3`, the GI50 falls from 65.2 µM to 13.1 µM (5-fold).

Compared with `OC1CSSC1Cn1cnc2c(Nc3ccc(OCc4cccc(F)c4)c(Cl)c3)ncnc21` (stereo unspecified), `O=C1NC(=NCCc2cccc(F)c2)S/C1=C\c1ccc2ncccc2c1` is 1.6-fold lower in GI50: 6.17 µM for the first, 3.89 µM for the second.

With `Nc1c(C(=O)c2cccc(CCS(N)(=O)=O)c2)cnn1-c1ccc(F)cc1` the GI50 was greater than 25 µM.

For `O=C(Nc1ccccc1)c1c(O)[nH]c(=S)[nH]c1=O`, the TGI was 106 µM and > 250 µM.
For `CCCCCCCCCCCCCC(=O)OC(/C=C/C(C)C)C(O)C(O)C(OC)C(=O)NC1CCCCN(C)C1=O` (stereo unspecified), the TGI was 32.5 µM and > 49 µM.
With `C[C@@H](Oc1cc(-n2cnc3ccc(CN4CCN(C)CC4)cc32)sc1C(N)=O)c1ccccc1C(F)(F)F` the TGI was 0.982 µM and 0.187 µM.

With `C[C@@H](Oc1cc(-n2cnc3ccc(CN4CCN(C)CC4)cc32)sc1C(N)=O)c1ccccc1C(F)(F)F` the GI50 was 0.0615 µM and 0.0341 µM.

— PubChem BioAssay (NCI)
